# From ChEMBL document CHEMBL3351803, “5Z-7-Oxozeaenol covalently binds to MAP2K7 at Cys218 in an unprecedented manner” (Bioorg Med Chem Lett, 2015)
# Experiments:
# [1] = molecular target: Mitogen-activated protein kinase 1 (Homo sapiens, UniProt P28482); test: Inhibition of ERK2 (unknown origin) using FITC-labeled substrate peptide assessed as phosphorylation
# [2] = molecular target: Dual specificity mitogen-activated protein kinase kinase 1 (Homo sapiens, UniProt Q02750); test: Inhibition of MAP2K1 (unknown origin) using unphosphorylated GST-tagged ERK2 substrate protein assessed as phosphorylation by ELISA
# Chain of Dual specificity mitogen-activated protein kinase kinase 1 (Q02750 whole entry): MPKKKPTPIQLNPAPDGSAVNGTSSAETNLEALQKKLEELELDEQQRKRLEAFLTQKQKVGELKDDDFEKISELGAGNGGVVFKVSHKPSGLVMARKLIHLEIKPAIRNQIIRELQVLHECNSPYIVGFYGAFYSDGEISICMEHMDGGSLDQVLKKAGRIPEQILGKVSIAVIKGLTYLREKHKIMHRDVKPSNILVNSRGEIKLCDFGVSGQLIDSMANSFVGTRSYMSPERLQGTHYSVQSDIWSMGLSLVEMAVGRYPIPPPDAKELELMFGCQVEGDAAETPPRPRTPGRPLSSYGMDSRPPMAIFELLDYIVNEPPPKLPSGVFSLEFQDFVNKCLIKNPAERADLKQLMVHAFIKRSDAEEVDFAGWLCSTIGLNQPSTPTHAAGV
# [3] = molecular target: T1, Dual specificity mitogen-activated protein kinase kinase 7 (Homo sapiens, UniProt O14733); test: Inhibition of MAP2K7 (unknown origin) using unphosphorylated GST-tagged JNK1 substrate protein assessed as phosphorylation by ELISA
# T1 sequence (O14733 whole entry): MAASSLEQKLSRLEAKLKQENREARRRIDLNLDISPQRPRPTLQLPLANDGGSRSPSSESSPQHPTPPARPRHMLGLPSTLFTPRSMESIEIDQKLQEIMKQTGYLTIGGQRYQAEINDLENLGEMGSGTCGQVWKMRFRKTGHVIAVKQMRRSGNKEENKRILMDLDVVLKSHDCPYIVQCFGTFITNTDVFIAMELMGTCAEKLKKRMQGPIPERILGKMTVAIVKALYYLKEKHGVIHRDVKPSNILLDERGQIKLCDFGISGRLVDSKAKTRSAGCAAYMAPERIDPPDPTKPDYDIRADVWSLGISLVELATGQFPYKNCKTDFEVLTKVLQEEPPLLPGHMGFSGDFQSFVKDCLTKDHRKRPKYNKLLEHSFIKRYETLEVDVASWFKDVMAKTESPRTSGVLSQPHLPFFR
# Chain of Mitogen-activated protein kinase 1 (P28482 whole entry): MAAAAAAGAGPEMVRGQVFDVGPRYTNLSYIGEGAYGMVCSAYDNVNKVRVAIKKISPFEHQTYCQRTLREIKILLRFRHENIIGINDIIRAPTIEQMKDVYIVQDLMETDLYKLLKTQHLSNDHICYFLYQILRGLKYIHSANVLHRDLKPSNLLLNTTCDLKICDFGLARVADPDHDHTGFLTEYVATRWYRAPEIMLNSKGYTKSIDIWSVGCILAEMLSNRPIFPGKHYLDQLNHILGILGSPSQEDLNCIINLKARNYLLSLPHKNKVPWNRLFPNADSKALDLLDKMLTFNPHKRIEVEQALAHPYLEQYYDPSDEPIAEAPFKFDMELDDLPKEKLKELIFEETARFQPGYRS
compound,measurement,setting,value
COc1cc(O)c2c(c1)/C=C/C[C@H](O)[C@H](O)C(=O)/C=C\C[C@H](C)OC2=O,IC50,[1],6800 nM
same,IC50,[2],80 nM
same,IC50,[3],1300 nM
